# Calls of active or inactive are those of the source. The rule behind the calls is not given here.
# Columns and labels:
# [1] = molecular target: 5-hydroxytryptamine receptor 5A (Homo sapiens, UniProt P47898); test: Displacement of [3H]LSD from human recombinant 5HT5A receptor expressed in Flp-In CHO cells; assay type: cell-based
# [2] = molecular target: T1, 5-hydroxytryptamine receptor 3A (Homo sapiens, UniProt P46098); test: Displacement of [3H]GR65630 from human recombinant 5HT3 receptor expressed in HEKT cells; assay type: cell-based
# T1 sequence (P46098 whole entry): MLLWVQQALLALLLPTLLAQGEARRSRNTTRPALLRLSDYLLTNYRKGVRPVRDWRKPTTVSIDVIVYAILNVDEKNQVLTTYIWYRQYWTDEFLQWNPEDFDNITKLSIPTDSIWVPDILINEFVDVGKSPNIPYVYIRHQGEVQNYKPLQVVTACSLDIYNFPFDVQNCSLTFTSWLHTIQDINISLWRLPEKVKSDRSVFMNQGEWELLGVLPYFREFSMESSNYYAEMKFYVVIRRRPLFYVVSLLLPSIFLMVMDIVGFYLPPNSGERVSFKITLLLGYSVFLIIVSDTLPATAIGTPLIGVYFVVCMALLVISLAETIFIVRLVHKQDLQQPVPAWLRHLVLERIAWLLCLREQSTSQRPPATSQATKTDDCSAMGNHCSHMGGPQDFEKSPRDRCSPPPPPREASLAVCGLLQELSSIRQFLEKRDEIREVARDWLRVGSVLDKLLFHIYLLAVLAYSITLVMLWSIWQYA
# [3] = molecular target: T2, 5-hydroxytryptamine receptor 2C (Homo sapiens, UniProt P28335); test: Displacement of [3H]mesulergine from human recombinant 5HT2C receptor expressed in Flp-IN HEK cells; assay type: cell-based, HEK293
# T2 sequence (P28335 whole entry): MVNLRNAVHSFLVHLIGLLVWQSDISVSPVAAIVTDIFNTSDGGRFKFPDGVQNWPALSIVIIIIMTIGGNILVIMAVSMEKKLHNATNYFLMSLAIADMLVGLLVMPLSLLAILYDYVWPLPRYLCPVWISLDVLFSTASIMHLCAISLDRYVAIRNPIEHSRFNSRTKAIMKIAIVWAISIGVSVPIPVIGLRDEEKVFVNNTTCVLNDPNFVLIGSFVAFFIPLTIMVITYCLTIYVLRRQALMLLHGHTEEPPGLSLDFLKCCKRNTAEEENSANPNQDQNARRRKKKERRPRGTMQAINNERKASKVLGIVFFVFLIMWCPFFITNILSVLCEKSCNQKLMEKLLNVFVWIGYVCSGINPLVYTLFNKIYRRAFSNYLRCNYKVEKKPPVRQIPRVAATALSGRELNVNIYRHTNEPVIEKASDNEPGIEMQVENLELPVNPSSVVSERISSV
# [4] = molecular target: 5-hydroxytryptamine receptor 2B (Homo sapiens, UniProt P41595); test: Displacement of [3H]LSD from human recombinant 5HT2B receptor stably expressed in HEK cells; assay type: cell-based, HEK293
# [5] = molecular target: 5-hydroxytryptamine receptor 2A (Rattus norvegicus, UniProt P14842); test: Displacement of [3H]ketanserin from rat 5HT2A receptor stably expressed in 3T3 cells; assay type: cell-based
# [6] = molecular target: 5-hydroxytryptamine receptor 1E (Homo sapiens, UniProt P28566); test: Displacement of [3H]5-HT from human recombinant 5HT1E receptor stably expressed in HEK cells; assay type: cell-based, HEK293
# [7] = molecular target: 5-hydroxytryptamine receptor 1D (Homo sapiens, UniProt P28221); test: Displacement of [3H]5-CT from human recombinant 5HT1D receptor expressed in HEKT cells; assay type: cell-based
# [8] = molecular target: 5-hydroxytryptamine receptor 1B (Homo sapiens, UniProt P28222); test: Displacement of [3H]5-CT from human recombinant 5HT1B receptor stably expressed in HEK cells; assay type: cell-based, HEK293
# [9] = molecular target: T3, 5-hydroxytryptamine receptor 1A (Homo sapiens, UniProt P08908); test: Displacement of [3H]way100635 from human recombinant 5HT1A receptor stably expressed in CHO cells; assay type: cell-based
# T3 sequence (P08908 whole entry): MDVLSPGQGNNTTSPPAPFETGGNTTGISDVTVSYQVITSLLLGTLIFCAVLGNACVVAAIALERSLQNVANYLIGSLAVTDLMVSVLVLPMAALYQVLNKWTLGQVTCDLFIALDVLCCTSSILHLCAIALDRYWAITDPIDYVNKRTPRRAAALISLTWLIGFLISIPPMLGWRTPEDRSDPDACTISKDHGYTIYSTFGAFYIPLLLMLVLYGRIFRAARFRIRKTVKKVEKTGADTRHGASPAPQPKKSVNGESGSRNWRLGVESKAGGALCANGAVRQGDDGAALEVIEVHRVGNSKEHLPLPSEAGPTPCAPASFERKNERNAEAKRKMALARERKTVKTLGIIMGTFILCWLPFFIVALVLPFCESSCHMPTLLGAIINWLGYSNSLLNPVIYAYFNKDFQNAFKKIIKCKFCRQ
# [10] = test system: Gallus gallus; test: Effect on social seperation in chick anxiety-depression model assessed as attenuation of decline in distress vocalizations during depression-like phase at 30 nM/kg, ip 15 mins prior to behavioral testing measured after 45 to 60 mins; assay type: functional, organism-based
# [11] = test system: Gallus gallus; test: Effect on social seperation in chick anxiety-depression model assessed as attenuation of decline in distress vocalizations during depression-like phase at 10 to 100 nM/kg, ip 15 mins prior to behavioral testing measured after 30 to 45 mins; assay type: functional, organism-based
# [12] = test system: Gallus gallus; test: Effect on social seperation in chick anxiety-depression model assessed as reduction in distress vocalizations during anxiety-like phase at 10 to 100 nM/kg, ip 15 mins prior to behavioral testing measured for 1 to 5 mins; assay type: functional, organism-based
# [13] = test system: Gallus gallus; test: Effect on isolation-stressor in chick anxiety-depression model assessed as attenuation of decline in distress vocalizations during depression-like phase at 30 nM/kg, ip 15 mins prior to behavioral testing measured after 5 to 60 mins; assay type: functional, organism-based
# [14] = test system: Gallus gallus; test: Effect on isolation-stressor in chick anxiety-depression model assessed as reduction in distress vocalizations during anxiety-like phase at 10 to 100 nM/kg, ip 15 mins prior to behavioral testing measured for 1 to 5 mins; assay type: functional, organism-based
# [15] = molecular target: 5-hydroxytryptamine receptor 7 (Homo sapiens, UniProt P34969); test: Displacement of [3H]LSD from human recombinant 5HT7 receptor stably expressed in HEK cells; assay type: cell-based, HEK293
# [16] = molecular target: 5-hydroxytryptamine receptor 6 (Homo sapiens, UniProt P50406); test: Displacement of [3H]LSD from human recombinant 5HT6 receptor stably expressed in HEK cells; assay type: cell-based, HEK293
# [17] = test system: Gallus gallus; test: Effect on social seperation in chick anxiety-depression model assessed as attenuation of decline in distress vocalizations during depression-like phase at 5 mg/kg, ip 15 mins prior to behavioral testing measured after 45 to 60 mins; assay type: functional, organism-based; design: dose 5 mg/kg
# [18] = test system: Gallus gallus; test: Effect on social seperation in chick anxiety-depression model assessed as attenuation of decline in distress vocalizations during depression-like phase at 5 mg/kg, ip 15 mins prior to behavioral testing measured after 30 to 45 mins; assay type: functional, organism-based; design: dose 5 mg/kg
# [19] = test system: Gallus gallus; test: Effect on isolation-stressor in chick anxiety-depression model assessed as attenuation of decline in distress vocalizations during depression-like phase at 5 mg/kg, ip 15 mins prior to behavioral testing measured after 5 to 60 mins; assay type: functional, organism-based; design: dose 5 mg/kg
# Chain of 5-hydroxytryptamine receptor 2A (P14842 whole entry): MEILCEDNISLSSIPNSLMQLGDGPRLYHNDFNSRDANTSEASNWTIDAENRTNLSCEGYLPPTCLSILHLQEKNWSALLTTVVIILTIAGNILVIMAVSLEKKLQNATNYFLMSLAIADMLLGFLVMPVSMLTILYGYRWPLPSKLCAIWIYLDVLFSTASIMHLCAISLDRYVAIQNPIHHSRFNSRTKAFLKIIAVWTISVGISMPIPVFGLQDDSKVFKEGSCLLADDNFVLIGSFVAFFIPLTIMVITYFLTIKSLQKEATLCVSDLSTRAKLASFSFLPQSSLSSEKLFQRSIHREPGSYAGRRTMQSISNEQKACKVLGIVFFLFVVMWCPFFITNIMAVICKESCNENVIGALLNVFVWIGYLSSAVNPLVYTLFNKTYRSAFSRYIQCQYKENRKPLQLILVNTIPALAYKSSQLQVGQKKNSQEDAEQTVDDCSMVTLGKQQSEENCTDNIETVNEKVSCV
# Chain of 5-hydroxytryptamine receptor 1B (P28222 whole entry): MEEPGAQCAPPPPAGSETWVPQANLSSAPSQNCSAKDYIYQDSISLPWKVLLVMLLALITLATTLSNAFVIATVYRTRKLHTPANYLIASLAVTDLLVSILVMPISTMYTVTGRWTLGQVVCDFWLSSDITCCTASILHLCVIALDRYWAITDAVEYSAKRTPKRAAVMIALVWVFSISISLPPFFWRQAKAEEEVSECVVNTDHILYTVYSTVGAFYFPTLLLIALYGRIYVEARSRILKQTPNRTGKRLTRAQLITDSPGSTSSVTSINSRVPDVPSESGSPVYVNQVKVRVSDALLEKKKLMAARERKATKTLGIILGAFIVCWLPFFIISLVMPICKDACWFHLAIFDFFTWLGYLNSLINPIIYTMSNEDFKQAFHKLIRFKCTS
# Chain of 5-hydroxytryptamine receptor 1D (P28221 whole entry): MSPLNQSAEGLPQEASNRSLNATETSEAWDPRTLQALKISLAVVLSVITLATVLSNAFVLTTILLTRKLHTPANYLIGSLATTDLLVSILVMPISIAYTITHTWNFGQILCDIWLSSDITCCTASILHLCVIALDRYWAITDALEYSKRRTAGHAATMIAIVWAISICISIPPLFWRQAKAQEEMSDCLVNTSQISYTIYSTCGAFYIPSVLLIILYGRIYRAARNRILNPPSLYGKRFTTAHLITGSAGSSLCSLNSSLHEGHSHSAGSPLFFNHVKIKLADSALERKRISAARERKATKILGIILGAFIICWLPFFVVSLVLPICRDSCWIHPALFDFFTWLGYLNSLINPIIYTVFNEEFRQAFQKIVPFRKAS
# Chain of 5-hydroxytryptamine receptor 2B (P41595 whole entry): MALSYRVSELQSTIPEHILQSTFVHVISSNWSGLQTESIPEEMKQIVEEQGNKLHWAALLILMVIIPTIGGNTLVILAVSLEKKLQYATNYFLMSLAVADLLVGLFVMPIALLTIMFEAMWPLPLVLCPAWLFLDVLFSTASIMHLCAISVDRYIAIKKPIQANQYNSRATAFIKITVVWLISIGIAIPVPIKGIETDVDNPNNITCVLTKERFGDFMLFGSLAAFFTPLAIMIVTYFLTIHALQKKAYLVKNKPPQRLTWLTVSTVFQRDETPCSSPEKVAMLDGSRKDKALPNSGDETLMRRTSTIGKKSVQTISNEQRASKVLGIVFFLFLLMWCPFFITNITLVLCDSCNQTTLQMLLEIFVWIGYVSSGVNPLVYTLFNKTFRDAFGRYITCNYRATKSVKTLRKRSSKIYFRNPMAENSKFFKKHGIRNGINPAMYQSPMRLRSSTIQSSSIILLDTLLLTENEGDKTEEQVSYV
# Chain of 5-hydroxytryptamine receptor 5A (P47898 whole entry): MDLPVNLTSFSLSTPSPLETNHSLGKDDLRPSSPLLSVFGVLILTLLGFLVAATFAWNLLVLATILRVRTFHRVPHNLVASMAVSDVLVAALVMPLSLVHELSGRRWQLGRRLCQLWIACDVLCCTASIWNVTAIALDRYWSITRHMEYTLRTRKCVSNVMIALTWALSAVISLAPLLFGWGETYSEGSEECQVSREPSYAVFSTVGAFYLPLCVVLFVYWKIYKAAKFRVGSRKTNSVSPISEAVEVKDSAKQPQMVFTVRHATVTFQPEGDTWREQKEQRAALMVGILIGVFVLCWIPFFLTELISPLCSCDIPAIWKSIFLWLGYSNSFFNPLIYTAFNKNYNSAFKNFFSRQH
# Chain of 5-hydroxytryptamine receptor 1E (P28566 whole entry): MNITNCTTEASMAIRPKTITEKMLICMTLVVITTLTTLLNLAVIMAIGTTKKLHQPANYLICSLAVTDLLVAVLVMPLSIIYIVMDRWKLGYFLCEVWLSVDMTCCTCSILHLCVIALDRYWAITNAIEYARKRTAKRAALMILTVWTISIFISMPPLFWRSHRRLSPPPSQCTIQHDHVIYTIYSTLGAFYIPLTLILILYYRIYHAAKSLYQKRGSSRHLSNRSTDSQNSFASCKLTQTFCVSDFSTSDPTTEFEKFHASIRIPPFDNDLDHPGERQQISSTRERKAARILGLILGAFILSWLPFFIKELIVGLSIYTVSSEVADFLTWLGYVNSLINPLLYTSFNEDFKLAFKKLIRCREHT
# Chain of 5-hydroxytryptamine receptor 6 (P50406 whole entry): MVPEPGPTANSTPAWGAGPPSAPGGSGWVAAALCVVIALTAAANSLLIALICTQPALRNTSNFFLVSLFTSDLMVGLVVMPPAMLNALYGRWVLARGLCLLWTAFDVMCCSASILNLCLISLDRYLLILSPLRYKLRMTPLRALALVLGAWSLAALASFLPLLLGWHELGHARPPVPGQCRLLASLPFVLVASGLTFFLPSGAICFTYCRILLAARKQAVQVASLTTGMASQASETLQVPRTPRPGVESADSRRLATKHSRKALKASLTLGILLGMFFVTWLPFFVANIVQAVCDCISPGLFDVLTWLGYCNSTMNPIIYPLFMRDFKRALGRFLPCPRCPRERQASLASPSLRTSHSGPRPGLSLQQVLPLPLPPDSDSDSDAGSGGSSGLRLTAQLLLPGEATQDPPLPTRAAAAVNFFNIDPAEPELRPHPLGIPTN
# Chain of 5-hydroxytryptamine receptor 7 (P34969 whole entry): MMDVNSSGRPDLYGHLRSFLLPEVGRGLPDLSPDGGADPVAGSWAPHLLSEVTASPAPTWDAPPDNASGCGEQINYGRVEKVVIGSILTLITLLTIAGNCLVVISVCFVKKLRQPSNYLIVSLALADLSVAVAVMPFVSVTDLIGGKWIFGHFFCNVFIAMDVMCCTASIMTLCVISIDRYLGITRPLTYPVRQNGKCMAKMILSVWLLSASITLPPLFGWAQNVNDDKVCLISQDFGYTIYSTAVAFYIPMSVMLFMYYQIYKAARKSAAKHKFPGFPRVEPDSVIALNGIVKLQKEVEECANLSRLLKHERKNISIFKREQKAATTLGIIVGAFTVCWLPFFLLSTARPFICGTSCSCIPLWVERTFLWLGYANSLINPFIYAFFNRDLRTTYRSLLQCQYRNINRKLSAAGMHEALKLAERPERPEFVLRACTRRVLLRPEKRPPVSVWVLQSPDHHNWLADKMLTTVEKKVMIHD
Ki [1] [µM],Ki [2] [µM],Ki [3] [µM],Ki [4] [µM],Ki [5] [µM],Ki [6] [µM],Ki [7] [µM],Ki [8] [µM],Ki [9] [µM],Ki [15] [µM],Ki [16] [µM],SMILES,Activity [10],Activity [11],Activity [12],Activity [13],Activity [14],Activity [17],Activity [18],Activity [19]
7.83,0.656,2.76,0.589,> 10,> 10,6.83,> 10,0.315,–,–,CN1C(=N)N(C)/C(=C/c2c[nH]c3cccc(Br)c23)C1=O,–,–,–,–,–,–,–,–
0.089,–,0.035,0.051,0.058,–,–,–,–,0.512,0.742,N=C1NC(=O)/C(=C\c2c[nH]c3ccc(Br)cc23)N1,Active,inactive,Active,Active,inactive,–,–,–
1.45,5.92,0.32,0.099,0.662,–,> 10,> 10,4.61,–,1.41,C/N=C1\NC(=O)/C(=C\c2c[nH]c3cccc(Br)c23)N1C,–,–,–,–,–,–,–,–
–,1.22,3.01,0.349,–,> 10,> 10,> 10,1.81,–,–,CN1C(=N)N(C)/C(=C/c2c[nH]c3c(Br)cccc23)C1=O,–,–,–,–,–,–,–,–
–,–,–,–,–,–,–,–,–,–,–,CN(C)CCCN1c2ccccc2CCc2ccccc21,–,–,–,–,–,Active,Active,Active

# Reference: ChEMBL document CHEMBL2440075, “In vitro structure-activity relationships of aplysinopsin analogs and their in vivo evaluation in the chick anxiety-depression model” (Bioorg Med Chem, 2013)
